Literature values as cited in patent US6653351B2, “Adjuvant chemotherapy for anaplastic gliomas” (priority 2001, dated 2003).
Counter-ions that a name gives are not always drawn.

Details: in vivo

Structure (SMILES)	crossing of the blood brain barrier
CC[C@]1(O)C[C@H]2CN(CCc3c([nH]c4ccccc34)[C@@](C(=O)OC)(c3cc4c(cc3OC)N(C=O)[C@H]3[C@@](O)(C(=O)OC)[C@H](OC(C)=O)[C@]5(CC)C=CCN6CC[C@]43[C@@H]65)C2)C1 [Vincristine, vincaleukoblastine, a 22-oxo-, sulfate (1:1) (salt)]	does not appear to cross the blood brain barrier
O=NN(CCCl)C(=O)NC1CCCCC1 [Lomustine, 1-(2-chloroethyl)-3-cyclohexyl-1-nitrosourea]	crosses the blood brain barrier
